Like-named read-outs stand apart in the source and are kept apart here.
Assays:
EZH2 (rPRC2) = EZH2 (rPRC2) (Homo sapiens, UniProt Q15910); assay: EZH2 assay: rPRC2, biotinylated oligonucleosomes, 3H SAM methyl transfer (FlashPlate scintillation); assay type: biochemical; conditions: biotinylated oligonucleosome substrate
Y641N EZH2 = Y641N EZH2 (Homo sapiens, UniProt Q15910, Y641N); assay: Y641N EZH2 assay: as EZH2 assay, with reconstituted H3K27Me2 oligonucleosomes as substrate; assay type: biochemical
Sequence of Y641N EZH2 (Q15910 whole entry Y641N): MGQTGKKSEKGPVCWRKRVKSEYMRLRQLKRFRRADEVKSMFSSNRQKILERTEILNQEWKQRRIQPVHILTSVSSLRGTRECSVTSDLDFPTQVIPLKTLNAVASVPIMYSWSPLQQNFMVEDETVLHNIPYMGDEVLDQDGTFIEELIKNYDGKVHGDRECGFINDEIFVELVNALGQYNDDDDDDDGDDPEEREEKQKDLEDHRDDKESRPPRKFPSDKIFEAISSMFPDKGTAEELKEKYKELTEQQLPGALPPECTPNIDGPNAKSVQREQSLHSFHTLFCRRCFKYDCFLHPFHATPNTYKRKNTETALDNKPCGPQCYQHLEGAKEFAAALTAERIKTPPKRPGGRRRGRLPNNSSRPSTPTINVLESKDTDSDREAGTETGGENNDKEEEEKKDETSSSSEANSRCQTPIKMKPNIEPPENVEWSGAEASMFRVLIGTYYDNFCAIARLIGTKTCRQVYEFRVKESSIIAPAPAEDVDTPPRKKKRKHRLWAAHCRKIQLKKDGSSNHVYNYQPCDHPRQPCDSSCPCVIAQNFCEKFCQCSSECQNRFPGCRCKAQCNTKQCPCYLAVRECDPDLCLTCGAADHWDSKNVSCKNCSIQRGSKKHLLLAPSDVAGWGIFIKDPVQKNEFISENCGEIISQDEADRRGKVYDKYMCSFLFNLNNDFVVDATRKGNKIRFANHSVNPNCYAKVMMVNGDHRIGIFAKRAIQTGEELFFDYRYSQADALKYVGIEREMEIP
Sequence of Y641N EZH2 (O75530 whole entry partner): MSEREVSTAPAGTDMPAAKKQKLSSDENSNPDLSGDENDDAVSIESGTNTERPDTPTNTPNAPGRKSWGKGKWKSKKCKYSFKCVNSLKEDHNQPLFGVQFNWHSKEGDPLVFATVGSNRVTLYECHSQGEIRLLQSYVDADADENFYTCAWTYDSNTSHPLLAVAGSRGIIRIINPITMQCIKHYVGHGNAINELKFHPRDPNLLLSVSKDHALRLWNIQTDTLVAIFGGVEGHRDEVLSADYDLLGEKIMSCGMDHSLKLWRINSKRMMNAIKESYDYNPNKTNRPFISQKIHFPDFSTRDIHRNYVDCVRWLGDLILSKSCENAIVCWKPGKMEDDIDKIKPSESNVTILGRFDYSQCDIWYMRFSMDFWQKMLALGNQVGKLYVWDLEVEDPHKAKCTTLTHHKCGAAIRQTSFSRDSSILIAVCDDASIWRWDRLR
Sequence of Y641N EZH2 (Q15022 whole entry partner): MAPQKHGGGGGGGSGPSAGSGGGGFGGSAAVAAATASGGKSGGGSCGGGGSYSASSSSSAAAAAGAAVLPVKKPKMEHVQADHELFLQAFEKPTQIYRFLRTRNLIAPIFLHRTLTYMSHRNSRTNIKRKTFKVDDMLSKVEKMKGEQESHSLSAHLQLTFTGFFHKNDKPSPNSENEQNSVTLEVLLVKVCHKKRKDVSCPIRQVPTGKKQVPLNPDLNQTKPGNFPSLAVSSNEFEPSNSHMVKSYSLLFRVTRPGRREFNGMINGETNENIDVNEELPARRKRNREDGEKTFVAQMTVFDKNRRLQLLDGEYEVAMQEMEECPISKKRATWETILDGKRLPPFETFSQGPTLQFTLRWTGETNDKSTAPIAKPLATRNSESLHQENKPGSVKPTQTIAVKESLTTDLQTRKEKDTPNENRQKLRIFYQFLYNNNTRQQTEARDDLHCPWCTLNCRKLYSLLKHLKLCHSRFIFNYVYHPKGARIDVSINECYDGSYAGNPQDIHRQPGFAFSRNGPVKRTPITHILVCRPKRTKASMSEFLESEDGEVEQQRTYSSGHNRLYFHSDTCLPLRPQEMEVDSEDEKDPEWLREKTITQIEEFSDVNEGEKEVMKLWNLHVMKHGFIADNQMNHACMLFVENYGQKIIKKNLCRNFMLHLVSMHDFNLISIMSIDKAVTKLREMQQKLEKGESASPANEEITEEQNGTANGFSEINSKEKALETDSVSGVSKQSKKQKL

[1] = tested on: H3K27me3 mark in HeLa cells; assay: H3K27me3 MSD Hela Assay; assay type: cell-based; conditions: read-out: H3K27me3_MSD_HeLa_ (EC50)
Experimental: Trypsinized HeLa cells were counted and diluted in 10% DMEM (Life Technologies, Cat. #10569) to 5000 cells/75 μL. Seventy-five […] of cells were place in each well of a 96-well flat-bottomed plate and incubated at 37° C. for 4 hours. Twenty-five μL of test compound (at various concentrations) was added to the cells and incubation continued at 37° C. for 96 hours. Media was then removed and the cells rinsed once with ice cold PBS. Forty μL of ice-cold MSD Buffer AT (10 mM HEPES, pH 7.9, 5 mM MgCl2, 0.25M sucrose, Benzonase (1:10000), 1% Triton X-100 supplemented with fresh 1× Protease Inhibitor cocktail and 1 mM 4-(2-Aminoethyl)benzenesulfonyl fluoride hydrochloride (AEBSF)) was added to each well and the plates placed on ice for 30 minutes. Ten μL of 5M NaCl was then added to each well and incubation on ice continued for another 15 minutes. The material in each well was suspended pipetting up and down and then transferred to a new 96 well plate. The emptied wells were rinsed with 150 uL ice-cold 20 mM Tris pH 7.5, 1 mM EDTA, 1 mM EGTA, supplemented with fresh 1× Protease Inhibitor cocktail and 1 mM AEBSF (“NO salt NO detergent buffer) and transferred to the respective wells in the new plate. Three hundred μL of NO Salt NO detergent buffer was then added to each well of lysates and the plates frozen at −80° C.
On the same day, an appropriate number of MSD standard bind 96-well plates were coated with 30 μL/well of total H3 capture antibody (Millipore. Cat #MAB3422) at 1 μg/mL concentration in PBS. The antibody solution was evenly distributed first by tapping gently on the sides of the plates and then by shaking the plates for a few minutes at 1000 rpm. Antibody coated plates were stored at 4° C. overnight.
The next day the lysates are thawed to RT. The antibody coated MSD plates are washed 3× with TBS-T (Tris-buffered saline (Fisher Scientific, Cat #BP2471-1)+0.2% Tween-20). One-hundred fifty μL of 5% Blocker A in TBS-T is added to each well. The wells are covered and shaken on a shaker at RT for one hour. The Blocker A step is repeated a second time. After removing the blocker, 25 μL of cell lysate is transferred into each antibody coated well. The plates are shaken for 2 hours at RT, the lysate removed and the plates again washed with Blocker A in TBS-T. Twenty-five μL of appropriate freshly prepared antibody mix (including both primary and secondary antibodies) is added to each well and the plates shaken for 1 hour at RT.
Both H3 antibodies were obtained from Cell Signalling (Cat #s 4499 and 9733). The goat anti-rabbit antibody was obtained from Meso-Scale Discovery (Cat #R32AB-1).
The antibody mix was then removed and the wells washed with Blocker A. One hundred-fifty μL of freshly prepared 1×MSD Read Buffer (Meso-Scale Discovery; Cat #R927C-2) was then added to each well and the plates read on a MSD Sector 2400 Plate Reader.
Data was analyzed using Assay Assistant (Constellation Pharmaceuticals In-house product) and Activity Base (IDBS Ltd, Surrey, UK) template. Data files were imported to Assay Assistant and assay conditions were specified. A unique Analysis ID was created and the data files exported to Activity Base. An analysis template was created on Activity Base to measure dose-dependent inhibition of H3K27me3 mark and cell viability respectively. Readout of DMSO wells were used to normalize the data. Resulting curves were fitted using Activity base software Model 205 (IDBS Ltd. Surrey, UK). The data was checked for quality, validated and integrated in excel format using SARview (IDBS Ltd, Surrey, UK).

[2] = EZH2 IC50, wild-type EZH2 (rPRC2)
[3] = Y641N EZH2 IC50, Y641N mutant EZH2, H3K27Me2 oligonucleosome substrate
[4] = wild-type EZH2 (rPRC2), read-out: EZH2 IC50
[5] = Y641N mutant EZH2, H3K27Me2 oligonucleosome substrate, read-out: Y641N EZH2 IC50
[6] = Homo sapiens, HeLa cells, MSD, 96 hours

Sequence of EZH2 (rPRC2) (Q15910 whole entry): as the sequence (Q15910 whole entry Y641N) above, with N641Y counted along it
Sequence of EZH2 (rPRC2) (O75530 whole entry partner): as the sequence (O75530 whole entry partner) above
Sequence of EZH2 (rPRC2) (Q15022 whole entry partner): as the sequence (Q15022 whole entry partner) above

Compound | IC50 (EZH2 (rPRC2); [2]) [nM] | IC50 (Y641N EZH2; [3]) [nM] | EC50 ([1]; Homo sapiens, HeLa, 96 h) [nM] | IC50 (EZH2 (rPRC2); [4]) [nM] | IC50 (Y641N EZH2; [5]) [nM] | EC50 [1, 6] [nM] | EC50 ([1]; HeLa cells, MSD, 96 hours) [nM]
Cc1cc(C)c(CNC(=O)c2c(C)n(C(C)c3ccccc3)c3ncccc23)c(O)n1 (racemic) [Compound 146, N-((2-hydroxy-4,6-dimethylpyridin-3-yl)methyl)-2-methyl-1-(1-phenylethyl)-1H-pyrrolo[2,3-b]pyridine-3-carboxamide] | < 100 | 100 to 1000 | 400 to 2000 | – | – | – | –
COCC(C)n1c(C)c(C(=O)NCc2c(OC)cc(C)[nH]c2=O)c2cccnc21 (racemic) [Compound 204, (±)-N-((4-methoxy-6-methyl-2-oxo-1,2-dihydropyridin-3-yl)methyl)-1-(1-methoxypropan-2-yl)-2-methyl-1H-pyrrolo[2,3-b]pyridine-3-carboxamide] | < 100 | 100 to 1000 | 400 to 2000 | – | – | – | –
Cc1cc(C)c(CNC(=O)c2c(C)n([C@H](C)c3ccccc3)c3nc(N4CCNCC4)ncc23)c(O)n1 [Compound 169, (R)-N-((2-hydroxy-4,6-dimethylpyridin-3-yl)methyl)-6-methyl-7-(1-phenylethyl)-2-(piperazin-1-yl)-7H-pyrrolo[2,3-d]pyrimidine-5-carboxamide] | – | – | – | < 100 | 100 to 1000 | > 10000 | –
COCC(C)n1c(C)c(C(=O)NCc2c(OC)cc(C)[nH]c2=O)c2cc(F)ccc21 (racemic) [Compound 230, (±)-5-fluoro-N-((4-methoxy-6-methyl-2-oxo-1,2-dihydropyridin-3-yl)methyl)-1-(1-methoxypropan-2-yl)-2-methyl-1H-indole-3-carboxamide] | < 100 | 100 to 1000 | 400 to 2000 | – | – | – | –
COc1cc(C)[nH]c(=O)c1CNC(=O)c1c(C)n(C(C)C2CCCN(S(C)(=O)=O)C2)c2ccccc12 (stereo not drawn) [Compound 318] | < 100 | < 100 | > 10000 | – | – | – | –
Cc1cc(C)c(CNC(=O)c2c(C)n([C@H](C)c3ccccc3)c3nc(N4CCOCC4)ncc23)c(O)n1 [Compound 143, (R)—N-((2-hydroxy-4,6-dimethylpyridin-3-yl)methyl)-6-methyl-2-morpholino-7-(1-phenylethyl)-7H-pyrrolo[2,3-d]pyrimidine-5-carboxamide] | < 100 | 1000 to 10000 | 2000 to 10000 | – | – | – | –
COc1cc(C)[nH]c(=O)c1CNC(=O)c1c(C)n(C(C)c2cccc(C(N)=O)c2)c2ncccc12 (racemic) [Compound 242, (±)-1-(1-(3-carbamoylphenyl)ethyl)-N-((4-methoxy-6-methyl-2-oxo-1,2-dihydropyridin-3-yl)methyl)-2-methyl-1H-pyrrolo[2,3-b]pyridine-3-carboxamide] | – | – | – | < 100 | 100 to 1000 | 2000 to 10000 | –
Cc1ccc(C(C)n2c(C)c(C(=O)NCc3c(C)cc(C)[nH]c3=O)c3ccccc32)cc1 (racemic) [Compound 172, (±)-N-((4,6-dimethyl-2-oxo-1,2-dihydropyridin-3-yl)methyl)-2-methyl-1-(1-(p-tolyl)ethyl)-1H-indole-3-carboxamide] | < 100 | 100 to 1000 | 2000 to 10000 | – | – | – | –
COc1ccc2c(C(=O)NCc3c(OC)cc(C)[nH]c3=O)c(C)n(C(C)C3CCOCC3)c2c1 (single isomer, unassigned) [Compound 321, (R or S)-6-methoxy-N-((4-methoxy-6-methyl-2-oxo-1,2-dihydropyridin-3-yl)methyl)-2-methyl-(1-(tetrahydro-2H-pyran-4-yl)ethyl)-1 H-indole-3-carboxamide] | < 100 | < 100 | < 400 | – | – | – | –
COCC(C)n1c(C)c(C(=O)NCc2c(OC)cc(C)[nH]c2=O)c2ccc(F)cc21 (racemic) [Compound 231, (±)-6-fluoro-N-((4-methoxy-6-methyl-2-oxo-1,2-dihydropyridin-3-yl)methyl)-1-(1-methoxypropan-2-yl)-2-methyl-1H-indole-3-carboxamide] | < 100 | 100 to 1000 | 400 to 2000 | – | – | – | –
COc1cc(C)[nH]c(=O)c1CNC(=O)c1c(C)n(C(C)C2CCN(C(=O)OC(C)(C)C)CC2)c2ccccc12 (single isomer, unassigned) [Compound 327, (R or S)-tert-butyl 4-(1-(3-((4-methoxy-6-methyl-2-oxo-1,2-dihydropyridin-3-yl)methylcarbamoyl)-2-methyl-1H-indol-1-yl)ethyl)piperidine-1-carboxylate] | < 100 | < 100 | < 400 | – | – | – | –
COCC(C)n1c(C)c(C(=O)NCc2c(OC)cc(C)[nH]c2=O)c2ccccc21 (stereo not drawn) [Compound 219, N-((4-methoxy-6-methyl-2-oxo-1,2-dihydropyridin-3-yl)methyl)-1-(1-methoxypropan-2-yl)-2-methyl-1H-indole-3-carboxamide] | < 100 | < 100 | 400 to 2000 | – | – | – | –
(±)-1-(1-(3-cyanophenyl)ethyl)-N-(4,6-dimethyl-2-oxo-1,2-dihydropyridin-3-yl)-2-methyl-1H-indole-3-carboxamide [Compound 175] | – | – | – | < 100 | < 100 | – | 400 to 2000
COc1cncc(C(C)n2c(C)c(C(=O)NCc3c(C)cc(C)[nH]c3=O)c3cccnc32)c1 (racemic) [Compound 215, (±)-N-((4,6-dimethyl-2-oxo-1,2-dihydropyridin-3-yl)methyl)-1-(1-(5-methoxypyridin-3-yl)ethyl)-2-methyl-1H-pyrrolo[2,3-b]pyridine-3-carboxamide] | 100 to 1000 | 1000 to 10000 | 2000 to 10000 | – | – | – | –
COc1cc(C)[nH]c(=O)c1CNC(=O)c1c(C)n(C2CCCC2)c2ccccc12 [Compound 324, 1-cyclopentyl-N-((4-methoxy-6-methyl-2-oxo-1,2-dihydropyridin-3-yl)methyl)-2-methyl-1H-indole-3-carboxamide] | < 100 | 100 to 1000 | 2000 to 10000 | – | – | – | –
Cc1cc(C)c(CNC(=O)c2c(C)n(C(C)c3ccc(F)cc3)c3ccccc23)c(=O)[nH]1 (racemic) [Compound 166, (±)-N-((4,6-dimethyl-2-oxo-1,2-dihydropyridin-3-yl)methyl)-1-(1-(4-fluorophenyl)ethyl)-2-methyl-1H-indole-3-carboxamide] | < 100 | 100 to 1000 | 2000 to 10000 | – | – | – | –
Cc1cc(C)c(COC(=O)c2c(C)n(C3CCc4ccccc43)c3ncccc23)c(=O)[nH]1 (racemic) [Compound 201, (±)-(4,6-dimethyl-2-oxo-1,2-dihydropyridin-3-yl)methyl 1-(2,3-dihydro-1H-inden-1-yl)-2-methyl-1H-pyrrolo[2,3-b]pyridine-3-carboxylate] | – | – | – | < 100 | 100 to 1000 | 400 to 2000 | –
Cc1cc(C)c(CNC(=O)c2c(C)n([C@H](C)c3ccccc3)c3nc(N)ncc23)c(O)n1 [Compound 144, (R)-2-amino-N-((2-hydroxy-4,6-dimethylpyridin-3-yl)methyl)-6-methyl-7-(1-phenylethyl)-7H-pyrrolo[2,3-d]pyrimidine-5-carboxamide] | < 100 | 100 to 1000 | 2000 to 10000 | – | – | – | –

— patent publication US9371331B2, “Modulators of methyl modifying enzymes, compositions and uses thereof” (Constellation Pharmaceuticals, Inc., priority 2012, dated 2016)
